2 molecules from patent US20240360153A1 (Regeneron Pharmaceuticals, Inc., priority 2023, published 2024) can be followed below.

Series [1] can be described thus: In vitro microsomal metabolic stability, human liver microsomes. The series is classed as in vitro ADME. As to conditions: for Remaining (T = 60 min) / Remaining (T = NCF60 min) / half-life at 1 µM: Human liver microsomes; for Remaining (T = 60 min): with NADPH; for Remaining (T = NCF60 min): without NADPH regenerating system; for Remaining (T = 60 min) / Remaining (T = NCF60 min): 60 min; for CLint scaled at 1 µM / microsomal CLint at 1 µM: human, human liver microsomes; for CLint scaled at 1 µM / microsomal CLint at 1 µM / half-life at 1 µM: pH 7.2; for half-life at 1 µM: 0.5 mg/ml protein, NADPH. The method in brief:
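Compounds at 1 μM incubated at 37° C with pooled CD-1 mouse or human liver microsomes (0.5 mg/mL protein) plus NADPH regenerating system in 50 mM potassium phosphate, pH 7.2, 3.3 mM MgCl2; sampled at 0–60 min, 60-min no-NADPH control. Parent loss by LC/MS/MS analyte/IS peak-area ratio, n=1.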
For orientation: Liver microsomes are a subcellular fraction often used to study metabolism.

Series [2] relates to S6K1 (Thr389) phosphorylation (mTORC1 activity) in wild-type (WT) 293T cells. Briefly: Inhibition of S6K1 (Thr389) phosphorylation in wild-type 293T cells (ELISA). The series is classed as cell-based, human. As to conditions: for extent of inhibition of S6K1 (Thr389) phosphorylation: with increasing concentrations. The method in brief:
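WT 293T cells in DMEM + 10% FBS, grown 24 h to ~80% confluence, then treated 2 h at 37 °C in duplicate with compounds over an 8–11-point range from 0.001 pM to 10 μM. DMSO vehicle served as negative control. Phospho-S6K1 (Thr389) measured by ELISA.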
For orientation: In an ELISA, binding on a coated surface is turned into a signal by an enzyme label.

Series [3] is described as follows: Pharmacokinetic studies in male CD-1 mice (plasma, IV and PO). The series is classed as in vivo, mouse. As to conditions: for clearance / Vd / bioavailability / half-life / Cmax / concentration at 8 h / concentration at 24 h: male; for clearance / Vd / bioavailability: CD-1, plasma, mouse; for clearance / Vd / half-life: IV 2 mg/kg; for clearance: read-out: CI(mL/min/kg), compounds clearance following IV administration; for Vd: read-out: Vdss (L/kg), volume of distribution following IV administration; for bioavailability: PO 10 mg/kg vs IV 2 mg/kg; for half-life / Cmax / concentration at 8 h / concentration at 24 h: CD-1; for half-life / Cmax / concentration at 8 h / concentration at 24 h / IV plasma half-life (T1/2): mouse plasma; for half-life: read-out: IV T1/2 (converted); for Cmax / concentration at 8 h / concentration at 24 h: PO 10 mg/kg; for concentration at 8 h: read-out: Compound concentration at 8-hour, PO administration; for concentration at 24 h: read-out: Compound concentration at 24-hour, PO administration. How it is done: Animal experiments were carried out at Wuxi AppTec. Male 6-8 weeks old CDI mice were obtained from Hilltop Labs. Following arrival at Wuxi AppTec, mice were housed in animal rooms with environmental control (temperature: 20 to 26° C.; lighting: 12 hour light/dark cycle). Mice were fed with certified pellet diet (Certified Rodent Diet #5002 by LabDiet). Water was provided to the animals ad libitum. Mice were acclimated to the facility for at least 3 days prior to starting experiments.
Appropriate amount of test article formulated in 5% ethanol, 5% Tween-80 and 5% PEG-400, 85% water. Formulation was prepared on the day of dosing and dosed within 2 hours following preparation of formulations. Dose accuracy was determined by LC-MS/MS.
Dose formulation(s) were administered following facility SOPs. Dose volumes were determined individually prior to dosing based on animals' body weights.
About 40 μL of blood samples were collected via peripheral veins (e.g. saphenous veins) at each pre-defined time point. Blood samples were collected into tubes containing K2EDTA as anti-coagulant and kept on ice until centrifugation.
Blood samples were centrifuged at 4° C., 3000 g for 5 min within half an hour of collection. Plasma was transferred into polypropylene tubes or 96-well plates, promptly frozen on dry ice and stored at −70±10° C. until analysis by LC-MS/MS.
Test compound concentration in mouse plasma was determined with LC-MS/MS method using a calibration curve with at least 6 non-zero calibration standards.
The pharmacokinetics (PK) of the test article was analyzed using Phoenix WinNonlin software (version 8.3) and non-compartmental analysis model. Derived PK parameters include, but not limited to, C0, CLp, Vdss, Cmax, Tmax, T1/2, AUC(0-t), AUC(0-inf), MRT(0-t), MRT(0-inf) and % F (bioavailability).

Entries after “also recorded” stand apart in the source; their conditions may differ.

Broadly, the CLint scaled is a measure of how fast metabolising enzymes remove a compound, apart from limits set by blood flow. A lower CLint scaled goes with slow turnover. In general, microsomal CLint refers to the capacity of the preparation to metabolise the compound, expressed as a volume cleared per time. A lower microsomal CLint goes with greater metabolic stability. What is called IC50 is the concentration at which inhibition is half-maximal. Read a high IC50 as a need for much substance. As a reminder, the bioavailability is dose-corrected exposure relative to a reference, in per cent. Read a low bioavailability as poor availability. One may read the Cmax as the maximum level reached in the sampled fluid or tissue. Regarding `COCCN(c1ccccc1)C1C[C@@H]2CC[C@@H](C)[C@@](O)(O2)C(=O)C(=O)N2CCCC[C@H]2C(=O)OC([C@H](C)CC2CC[C@@H](O)C(OC)C2)CC[C@H](C)/C=C(\C)C(O)C(OC)C(=O)[C@H](C)C[C@H](C)/C=C/C=C/C=C/1C` (stereo partly drawn) [Compound 69, (3S,6S,7E,9R,10R,12R,14S,15E,17E,19E,23S,26R,27R,34aS)-9,27-dihydroxy-3-((R)-1-((1S,3R,4R)-4-hydroxy-3-methoxycyclohexyl)propan-2-yl)-10-methoxy-21-((2-methoxyethyl)(phenyl)amino)-6,8,12,14,20,26-hexamethyl-5,6,9,10,12,13,14,21,22,23,24,25,26,27,32,33,34,34a-octadecahydro-3H-23,27-epoxypyrido[2,1-c][1]oxa[4]azacyclohentriacontine-1,11,28,29(4H,31H)-tetraone], in series [1], the “Remaining (T = 60 min)” value turned out to be 63.3%, the “Remaining (T = NCF60 min)” value is 115%, the CLint scaled at 1 µM worked out at 25.5 mL/min/kg and the microsomal CLint at 1 µM worked out at 28.3 µL/min/mg. Moreover, the half-life at 1 µM in series [1] was 0.817 h. Besides, in series [2] (Homo sapiens, HEK-293T, 2 h, wild-type 293T cells, 2 hours treatment), the IC50 stood at 1.53 nM. Also, in series [2] (wild-type cells), the “fold lower potency compared with RAD001 (by IC50)” value is reported as 4 fold and the “extent of inhibition of S6K1 (Thr389) phosphorylation” value is given as “near complete inhibition”. Also, in series [3], the clearance was 0.176 mL/min/kg, the Vd came out at 0.228 L/kg, the bioavailability amounted to 30.7% and the half-life is 15.5 h. Besides, in series [3], the highest concentration (Cmax) was 12900 ng/mL, the concentration at 8 h was 10000 ng/mL, the concentration at 24 h is 4670 ng/mL and the “IV plasma half-life (T1/2)” value came out at 15.5 h.

Take `CO[C@H]1C[C@@H]2CC[C@@H](C)[C@@](O)(O2)C(=O)C(=O)N2CCCC[C@H]2C(=O)O[C@H]([C@H](C)C[C@@H]2CC[C@@H](OCCO)[C@H](OC)C2)CC(=O)[C@H](C)/C=C(\C)[C@@H](O)[C@@H](OC)C(=O)[C@H](C)C[C@H](C)/C=C/C=C/C=C/1C` [RAD001, everolimus, reference compound]: in series [1], the “Remaining (T = 60 min)” value was determined as 2.10%, the “Remaining (T = NCF60 min)” value is 120%, the CLint scaled at 1 µM stood at 112 mL/min/kg and the intrinsic metabolic clearance (microsomal CLint) at 1 µM was 124 µL/min/mg. Further, the half-life at 1 µM in series [1] is 0.185 h. Also, the “extent of inhibition of S6K1 (Thr389) phosphorylation” value in series [2] (wild-type cells) is listed as “completely inhibit; also recorded: near complete inhibition”. Besides, in series [3], the clearance amounted to 0.934 mL/min/kg, the Vd came to 0.433 L/kg, the bioavailability worked out at 26% and the half-life is 5.85 h. Besides, in series [3], the Cmax was determined as 7220 ng/mL, the concentration at 8 h was 1960 ng/mL, the concentration at 24 h is 273 ng/mL and the “IV plasma half-life (T1/2)” value worked out at 5.85 h.
